Test results reported in patent EP0538016A1, “MRSA active 2-phenyl-carbapenems” (MERCK & CO. INC., priority 1991, dated 1993).

The compounds below were run on MRSA (assay: Activity against a strain of MRSA pathogen, relative to thienamycin). Details: relative to the effectiveness of thienamycin, arbitrarily assigned an effectiveness of 1.
Type: cell-based, methicillin resistant Staphylococcus aureus
Description: The activity of the following compounds was measured against a strain of MRSA pathogen and reported as relative to the effectiveness of thienamycin, which is arbitrarily assigned an effectiveness of 1. Regarding this measure of activity, reference is made to R. Guthikonda, et al., J. Med. Chem., 30, 871 (1987). [drawing 76]

**Q.** For C[C@@H](O)[C@H]1C(=O)N2C(C(=O)O)=C(c3cc([S+](C)[O-])cc([S+](C)[O-])c3)C[C@H]12 (stereo partly drawn) [R^a1=(S→O)Me, R^a2=H, R^a3=(S→O)Me], which “ANTI-INFECTIVE ACTIVITY MRSA” value is on record?
**A.** 1.2

**Q.** With C[C@@H](O)[C@H]1C(=O)N2C(C(=O)O)=C(c3cc([S+](C)[O-])cc(S(C)(=O)=O)c3)C[C@H]12 (stereo partly drawn) [R^a1=(S→O)Me, R^a2=H, R^a3=[drawing]] as the compound, how does the “ANTI-INFECTIVE ACTIVITY MRSA” value read?
**A.** 3.7

**Q.** With CC(O)C1C(=O)N2C(C(=O)O)=C(c3cc(Br)cc(CO)c3)CC12 (stereo not drawn) [R^a1=Br, R^a2=H, R^a3=CH2OH, reference compound] as the compound, how does the “ANTI-INFECTIVE ACTIVITY MRSA” value read?
**A.** 8.7

**Q.** How did the “ANTI-INFECTIVE ACTIVITY MRSA” value turn out when CC(O)C1C(=O)N2C(C(=O)O)=C(c3cc(Br)cc(C=O)c3)CC12 [R^a1=Br, R^a2=H, R^a3=HC=O, sodium (5R,6S)-2-[(3-aldehydo)-(5-bromo)phenyl]-6-[(1R)-1-hydroxyethyl]carbapen-2-em-3-carboxylate] was run?
**A.** 219

**Q.** For CC(O)C1C(=O)N2C(C(=O)O)=C(c3cccc(CO)c3)CC12 (stereo not drawn) [R^a1=H, R^a2=H, R^a3=CH2OH, reference compound], which “ANTI-INFECTIVE ACTIVITY MRSA” value is on record?
**A.** 0.9

**Q.** For CC(O)C1C(=O)N2C(C(=O)O)=C(c3cccc(C=O)c3)CC12 (stereo not drawn) [R^a1=H, R^a2=H, R^a3=HC=O, reference compound], which “ANTI-INFECTIVE ACTIVITY MRSA” value is on record?
**A.** 3.3

**Q.** For CC(O)C1C(=O)N2C(C(=O)O)=C(c3ccc(C=O)cc3)CC12 (stereo not drawn) [R^a1=H, R^a2=HC=O, R^a3=H, reference compound], which “ANTI-INFECTIVE ACTIVITY MRSA” value is on record?
**A.** 2

**Q.** With CC(O)C1C(=O)N2C(C(=O)O)=C(c3ccc(I)cc3)CC12 (stereo not drawn) [R^a1=H, R^a2=I, R^a3=H, reference compound] as the compound, how does the “ANTI-INFECTIVE ACTIVITY MRSA” value read?
**A.** 1.8

**Q.** How did the “ANTI-INFECTIVE ACTIVITY MRSA” value turn out when CC(O)C1C(=O)N2C(C(=O)O)=C(c3cc(I)cc([S+](C)[O-])c3)CC12 [R^a1=I, R^a2=H, R^a3=(S→O)Me, sodium (5R, 6S)-2-[(3-methylsulfinyl)-5-iodophenyl]-6-[(1R)-1-hydroxyethyl]carbapen-2-em-3-carboxylate] was run?
**A.** 63

**Q.** Which “ANTI-INFECTIVE ACTIVITY MRSA” value does the source give for CC(O)C1C(=O)N2C(C(=O)O)=C(c3cccc(I)c3)CC12 (stereo not drawn) [R^a1=I, R^a2=H, R^a3=H, reference compound] here?
**A.** 21

**Q.** How did the “ANTI-INFECTIVE ACTIVITY MRSA” value turn out when CC(O)C1C(=O)N2C(C(=O)O)=C(c3cc(I)cc(I)c3)CC12 [R^a1=I, R^a2=H, R^a3=I, sodium (5R,6S)-2-[(3,5-diiodo)phenyl]-6-[1R-1-hydroxyethyl]-carbapen-2-em-3-carboxylate] was run?
**A.** 88

**Q.** With CSc1cc(I)cc(C2=C(C(=O)O)N3C(=O)C(C(C)O)C3C2)c1 [R^a1=I, R^a2=H, R^a3=SMe, sodium (5R, 6S)-2-[(3-methylthio)-5-iodophenyl]-6-[(1R)-1-hydroxyethyl]carbapen-2-em-3-carboxylate] as the compound, how does the “ANTI-INFECTIVE ACTIVITY MRSA” value read?
**A.** 60

**Q.** How did the “ANTI-INFECTIVE ACTIVITY MRSA” value turn out when CC(O)C1C(=O)N2C(C(=O)O)=C(c3cc(I)cc(S(C)(=O)=O)c3)CC12 (stereo not drawn) [R^a1=I, R^a2=H, R^a3=[drawing]] was run?
**A.** 63

**Q.** How did the “ANTI-INFECTIVE ACTIVITY MRSA” value turn out when CSc1cc(C2=C(C(=O)O)N3C(=O)[C@H]([C@@H](C)O)[C@H]3C2)cc([S+](C)[O-])c1 (stereo partly drawn) [R^a1=SMe, R^a2=H, R^a3=(S→O)Me, sodium (5R,6S)-2-[(3-methylsulfinyl)-(5-methylthio)phenyl]-6-[(1R)-hydroxyethyl]carbapen-2-em-3-carboxylate] was run?
**A.** 6.1

**Q.** For CSc1cc(CO)cc(C2=C(C(=O)O)N3C(=O)[C@H]([C@@H](C)O)[C@H]3C2)c1 [R^a1=SMe, R^a2=H, R^a3=CH2OH], which “ANTI-INFECTIVE ACTIVITY MRSA” value is on record?
**A.** 3.2

**Q.** CSc1cc(C=O)cc(C2=C(C(=O)O)N3C(=O)[C@H]([C@@H](C)O)[C@H]3C2)c1 [R^a1=SMe, R^a2=H, R^a3=HC=O] was tested. Which “ANTI-INFECTIVE ACTIVITY MRSA” value did it give?
**A.** 61

**Q.** How did the “ANTI-INFECTIVE ACTIVITY MRSA” value turn out when CSc1cc(SC)cc(C2=C(C(=O)O)N3C(=O)C(C(C)O)C3C2)c1 (stereo not drawn) [R^a1=SMe, R^a2=H, R^a3=SMe] was run?
**A.** 28

**Q.** For C[C@@H](O)[C@H]1C(=O)N2C(C(=O)O)=C(c3cc(S(C)(=O)=O)cc(S(C)(=O)=O)c3)C[C@H]12 [R^a1=[drawing], R^a2=H, R^a3=[drawing]], which “ANTI-INFECTIVE ACTIVITY MRSA” value is on record?
**A.** 12
